Test results published in patent US11780821B2, “Inhibitors of fibroblast activation protein” (Praxis Biotech LLC, priority 2017, dated 2023).

What was measured:
[1] = standing in pH 7.8; cyclization; cited from earlier work
a variety of cancers = details: Phase II, combination with standard cytotoxic chemotherapy; cited from earlier work
[2] = target: T1, recombinant human FAPα (rhFAPα) (Homo sapiens, UniProt Q12884); test: FAPα enzymatic exopeptidase (dipeptidase) activity assay; assay type: biochemical; details: 1 μM test compound; Z-Gly-Pro-AMC substrate
T1 construct: purchased R&S system (so in the source)
T1 sequence (Q12884 1-760): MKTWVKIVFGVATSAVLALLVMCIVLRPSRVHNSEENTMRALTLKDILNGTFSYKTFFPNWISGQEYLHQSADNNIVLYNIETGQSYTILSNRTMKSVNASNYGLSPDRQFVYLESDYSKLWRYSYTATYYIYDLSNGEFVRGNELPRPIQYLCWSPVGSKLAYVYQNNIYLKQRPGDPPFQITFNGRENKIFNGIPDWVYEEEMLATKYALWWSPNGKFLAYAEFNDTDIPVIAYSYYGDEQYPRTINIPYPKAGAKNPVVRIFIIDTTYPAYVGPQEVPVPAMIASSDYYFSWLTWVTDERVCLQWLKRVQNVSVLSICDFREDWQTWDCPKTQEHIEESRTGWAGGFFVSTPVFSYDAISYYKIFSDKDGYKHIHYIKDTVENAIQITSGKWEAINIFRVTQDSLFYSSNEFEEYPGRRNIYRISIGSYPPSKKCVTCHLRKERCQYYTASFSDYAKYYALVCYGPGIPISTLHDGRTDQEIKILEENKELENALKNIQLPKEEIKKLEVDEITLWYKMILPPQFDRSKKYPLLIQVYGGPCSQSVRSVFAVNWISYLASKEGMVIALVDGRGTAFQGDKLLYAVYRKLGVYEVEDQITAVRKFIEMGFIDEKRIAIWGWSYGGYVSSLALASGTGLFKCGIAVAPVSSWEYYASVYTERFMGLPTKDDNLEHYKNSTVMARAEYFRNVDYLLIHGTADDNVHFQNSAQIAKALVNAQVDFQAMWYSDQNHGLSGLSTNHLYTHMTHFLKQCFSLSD

[3] = target: T2, recombinant mouse FAPα (rmFAPα) (Mus musculus, UniProt P97321); test: as above; assay type: biochemical; details: 1 μM test compound; Z-Gly-Pro-AMC substrate
T2 construct: purchased R&S system (so in the source)
T2 sequence (P97321 1-761): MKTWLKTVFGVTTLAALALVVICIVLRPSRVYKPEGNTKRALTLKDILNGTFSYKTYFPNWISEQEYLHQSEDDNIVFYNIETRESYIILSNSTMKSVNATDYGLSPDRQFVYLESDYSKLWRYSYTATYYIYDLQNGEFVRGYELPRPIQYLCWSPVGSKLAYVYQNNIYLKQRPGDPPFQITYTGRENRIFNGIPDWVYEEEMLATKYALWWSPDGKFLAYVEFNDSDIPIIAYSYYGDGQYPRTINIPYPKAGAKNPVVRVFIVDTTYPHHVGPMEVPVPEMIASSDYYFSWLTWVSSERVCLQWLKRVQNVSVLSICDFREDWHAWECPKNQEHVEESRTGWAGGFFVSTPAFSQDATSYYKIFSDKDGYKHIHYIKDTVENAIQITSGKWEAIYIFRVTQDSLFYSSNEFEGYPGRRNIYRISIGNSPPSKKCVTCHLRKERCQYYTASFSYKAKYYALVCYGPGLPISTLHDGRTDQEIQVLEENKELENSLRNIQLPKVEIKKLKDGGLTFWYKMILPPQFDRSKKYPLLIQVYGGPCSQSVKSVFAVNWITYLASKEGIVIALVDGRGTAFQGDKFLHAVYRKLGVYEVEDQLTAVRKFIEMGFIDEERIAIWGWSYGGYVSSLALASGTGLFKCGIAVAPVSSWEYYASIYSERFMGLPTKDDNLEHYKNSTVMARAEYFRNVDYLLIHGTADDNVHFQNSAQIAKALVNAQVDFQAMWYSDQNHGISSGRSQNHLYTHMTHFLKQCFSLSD
Protocol: FAPα enzymatic exopeptidase (dipeptidase) activity assay. […] 7-Amino-4-Methylcoumarin (AMC) release was detected by measuring fluorescence at Ex/Em 380/460 nm using a Multifunction Microplate Reader (Synergy 4, Biotek). All measurements were carried out in duplicate. […] For the calculations, the average measurements from reactions containing only vehicle and substrate, without enzyme, were used as a blank and were subtracted from the rest of the measurements. Percent inhibition was calculated using the average measurements from reactions containing vehicle, enzyme, and substrate as the maximum of enzymatic activity. Measurements were performed as a single point.

[4] = Intravenous and oral bioavailability in mice; assay type: in vivo
Protocol: The pharmacokinetic properties of exemplary test compounds were assayed after administration of an intravenous (IV) 2 mg/kg or oral (PO) 10 mg/kg single dose in mice. Exemplary test compounds were formulated at 0.4 and 1 mg/ml in a vehicle containing Poly-Ethylene Glycol 200 (PEG200; Cat. No. #P3015, Sigma Aldrich) and distilled water (dH2O) (50/50, v/v) as dosing solutions for intravenous and oral administration, respectively.
C57BL/6j and Balb/c mice, approximately 8-10 weeks old, were obtained from the vivarium Fundación Ciencia & Vida Chile (Santiago, Chile) and maintained in a temperature-controlled room with 12/12 hr light/dark schedule with food and water ad libitum. Animals were acclimated for a minimum period of 4 days upon arrival at the testing facility.
On the day of study, mice were weighed and identified by marking the tail with numbers using a non-toxic permanent marker for designation into the experimental groups (n=3 per group). Each mouse in the IV dosing groups received a systemic bolus of 2 mg/kg dosing solution via the caudal vein.
Non-dosed mice were used to collect samples of zero time points. […] Blood samples were centrifuged immediately at 9,000 g at 4° C. for 5 min and the plasma was separated.
The plasma samples were analyzed by QTRAP 4500 triple quadrupole mass spectrometer (Applied Biosystems SCIEX) in positive or negative ion mode depending on the tested compound and interfaced with an ekspert ultraLC 100-XL UPLC System (eksigent) to determine the concentration of the exemplary test compound. […] The precipitated samples were centrifuged at 6,100 g for 30 min at 4° C. Following centrifugation, an aliquot of each supernatant was transferred into a clean sample vial and diluted with two volumes of aqueous mobile phase (0.2% formic acid in water). Samples were injected onto a reverse phase analytical column (YMC Triart C18; 2.0×50 mm; 1.9 μm; YMC CO) and eluted with a gradient of 0.1 or 0.2% formic acid in Acetonitrile. Test compound and internal standard were monitored by a multiple reaction monitoring (MRM) experiment using Analyst software (v1.6.2, Applied Biosystems SCIEX). Quantitation was conducted using MultiQuant software (v2.1, Applied Biosystems SCIEX) and the resulting calibration curve was fitted with a linear or quadratic regression and 1/x weighting.
IV and PO PK parameters were calculated from the concentration-time data using Phoenix WinNonlin software (v6.4, Certara, Princeton, N.J.) by noncompartmental analysis. Area under the concentration-time curve (AUClast) was estimated using a log-linear trapezoidal method, from the dosing time to the last measurable concentration.

mouse plasma DPPIV = target: T3, mouse plasma DPPIV (Mus musculus, UniProt P28843); test: DPPIV enzymatic activity in mouse plasma; assay type: biochemical; details: C57BL/6 mouse plasma; H-Gly-Pro-AMC substrate
T3 construct: from tissue; host or cells: mouse plasma (C57BL/6, EDTA)
Protocol: Approximately 500 μL of whole blood from one C57BL/6 mouse was harvested into BD Microtainer® tubes (K2) EDTA (#365974, Becton Dickinson and Co.) via terminal cardiac puncture. The blood sample was immediately centrifuged at approximately 9000 g at 4° C. for 5 minutes. Plasma was separated and stored at −80° C. in aliquots of 300 μL. To assay baseline DPPIV enzymatic exopeptidase activity, 5 μL of thawed, mouse plasma was diluted (1:5) in buffer (100 mM Tris-HCl, 400 mM NaCl, 50 mM salicylic acid, 1 mM EDTA, pH 7.5) and mixed with 35 µL of the same buffer before being pre-incubated with different concentrations of 10 μL of test compounds or DMSO vehicle for 15 minutes at 37° C. in 96-well black plates (Nunc, #237108). After pre-incubation, 50 μL of 200 μM dipeptide substrate H-Gly-Pro-AMC (Bachem, #L-1225) was added to the mixture. The assay was performed for 1 hour at 37° C. 7-Amino-4-Methylcoumarin (AMC) release was detected measuring fluorescence at an excitation wavelength of 360 nm and an emission wavelength of 460 nm using a Multifunction Microplate Reader (Synergy 4, Biotek). All measurements were carried out at least in duplicate.

[5] = target: T4, recombinant mouse PREP (rmPREP) (Mus musculus, UniProt Q9QUR6); test: PREP enzymatic activity assay; assay type: biochemical; details: Z-Gly-Pro-AMC substrate
T4 construct: purchased R&S system (so in the source)
Protocol: 7-Amino-4-Methylcoumarin (AMC) release was detected by measuring fluorescence at Ex/Em 380/460 nm using a Multifunction Microplate Reader (Synergy 4, Biotek). All measurements were carried out in triplicate.

[6] = target: T5, recombinant mouse DPPIV (rmDPPIV) (Mus musculus, UniProt P28843); test: DPPIV enzymatic activity assay; assay type: biochemical; details: H-Gly-Pro-pNA substrate
T5 construct: purchased R&S system (so in the source)
T5 sequence (P28843 whole entry): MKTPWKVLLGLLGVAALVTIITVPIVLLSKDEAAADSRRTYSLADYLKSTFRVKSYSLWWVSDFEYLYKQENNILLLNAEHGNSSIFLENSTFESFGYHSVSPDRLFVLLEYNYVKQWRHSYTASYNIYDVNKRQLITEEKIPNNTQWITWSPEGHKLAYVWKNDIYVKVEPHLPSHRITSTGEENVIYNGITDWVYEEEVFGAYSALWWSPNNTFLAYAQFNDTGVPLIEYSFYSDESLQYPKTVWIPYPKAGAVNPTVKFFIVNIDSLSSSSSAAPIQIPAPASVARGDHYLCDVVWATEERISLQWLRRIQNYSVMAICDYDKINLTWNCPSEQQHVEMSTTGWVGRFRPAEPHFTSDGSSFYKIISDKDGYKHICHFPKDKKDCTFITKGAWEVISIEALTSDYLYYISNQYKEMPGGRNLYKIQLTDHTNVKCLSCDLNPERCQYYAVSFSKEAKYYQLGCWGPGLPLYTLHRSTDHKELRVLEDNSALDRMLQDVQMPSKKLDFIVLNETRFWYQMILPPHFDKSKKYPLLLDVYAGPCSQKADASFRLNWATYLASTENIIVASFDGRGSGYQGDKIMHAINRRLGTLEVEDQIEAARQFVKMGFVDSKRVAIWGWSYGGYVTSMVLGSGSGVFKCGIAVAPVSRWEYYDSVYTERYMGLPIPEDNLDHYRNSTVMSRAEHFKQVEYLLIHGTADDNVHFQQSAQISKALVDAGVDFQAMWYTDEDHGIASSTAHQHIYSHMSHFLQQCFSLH

T4 sequence (Q9QUR6 whole entry): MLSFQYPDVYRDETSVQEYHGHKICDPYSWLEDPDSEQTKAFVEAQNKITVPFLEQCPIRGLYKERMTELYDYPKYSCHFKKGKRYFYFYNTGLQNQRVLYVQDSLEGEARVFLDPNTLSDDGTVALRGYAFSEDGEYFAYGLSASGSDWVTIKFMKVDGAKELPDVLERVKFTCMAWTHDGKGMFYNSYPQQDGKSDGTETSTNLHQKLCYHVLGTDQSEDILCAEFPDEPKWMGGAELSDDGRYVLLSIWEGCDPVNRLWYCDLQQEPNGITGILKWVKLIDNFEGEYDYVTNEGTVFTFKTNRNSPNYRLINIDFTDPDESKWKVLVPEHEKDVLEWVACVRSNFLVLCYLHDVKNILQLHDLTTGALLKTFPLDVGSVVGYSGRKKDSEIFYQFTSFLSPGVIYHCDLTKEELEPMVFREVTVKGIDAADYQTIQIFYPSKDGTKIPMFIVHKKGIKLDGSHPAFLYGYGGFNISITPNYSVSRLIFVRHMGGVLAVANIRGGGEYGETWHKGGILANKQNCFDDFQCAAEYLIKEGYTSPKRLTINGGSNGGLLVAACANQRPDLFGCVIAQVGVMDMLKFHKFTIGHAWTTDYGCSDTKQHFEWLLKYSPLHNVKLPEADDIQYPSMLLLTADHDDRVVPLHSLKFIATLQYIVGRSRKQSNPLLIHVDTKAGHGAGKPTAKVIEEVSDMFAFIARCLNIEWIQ
T3 sequence (P28843 37-760 limits assumed): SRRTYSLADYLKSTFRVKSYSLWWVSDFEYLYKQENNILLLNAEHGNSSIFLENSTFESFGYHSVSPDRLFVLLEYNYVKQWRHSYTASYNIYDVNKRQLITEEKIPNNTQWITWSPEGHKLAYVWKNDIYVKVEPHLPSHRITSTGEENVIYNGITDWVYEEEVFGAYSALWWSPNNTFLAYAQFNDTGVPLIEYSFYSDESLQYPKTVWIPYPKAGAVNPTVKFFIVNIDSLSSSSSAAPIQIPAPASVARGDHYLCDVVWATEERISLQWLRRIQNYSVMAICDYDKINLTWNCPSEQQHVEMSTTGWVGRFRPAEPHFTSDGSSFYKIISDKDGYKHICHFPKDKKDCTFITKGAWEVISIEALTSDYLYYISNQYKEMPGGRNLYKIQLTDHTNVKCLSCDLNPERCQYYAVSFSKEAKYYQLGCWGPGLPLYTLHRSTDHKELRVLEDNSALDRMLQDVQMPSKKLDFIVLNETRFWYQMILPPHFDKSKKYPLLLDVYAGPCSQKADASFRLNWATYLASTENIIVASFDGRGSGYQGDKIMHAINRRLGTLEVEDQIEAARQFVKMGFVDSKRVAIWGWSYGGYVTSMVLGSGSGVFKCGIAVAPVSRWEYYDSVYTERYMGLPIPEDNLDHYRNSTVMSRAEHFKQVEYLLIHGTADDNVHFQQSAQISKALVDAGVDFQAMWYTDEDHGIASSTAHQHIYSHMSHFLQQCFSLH

| SMILES | stability of protease inhibitory activity [1] | clinical efficacy endpoints (a variety of cancers) | rhFAPα (% exo inh @ 1 μM) [2] | rmFAPα (% exo inh @ 1 μM) [3] | F (bioavailability) ([4]; PO 10 mg/kg vs IV 2 mg/kg) | AUClast ([4]; oral (PO) 10 mg/kg single dose, plasma) | IC50 (mouse plasma DPPIV) | IC50 [5] | IC50 [6] |
| --- | --- | --- | --- | --- | --- | --- | --- | --- | --- |
| CC(C)[C@H](N)C(=O)N1CCC[C@H]1B(O)O [Val-boroPro] | rapidly loses protease inhibitory activity | endpoints for efficacy were not met | – | – | – | – | – | – | – |
| N#CC1CC(F)(F)CN1C(=O)CNC(=O)c1ccnc2ccccc12 (stereo not drawn) [Ref. Comp., reference compound] | – | – | +++ (+++ refers to > 50% inhibition at 1 μM test compound) | +++ (+++ refers to > 50% inhibition at 1 μM test compound) | 39.7% | 1120 ng·h/mL | > 10 µM | > 10 µM | > 10 µM |
